One may read the EC50 as the concentration that produces a half-maximal response.

The target in this assay is T1, hSTING (Homo sapiens, UniProt Q86WV6, G230A/H232R/R293Q/R71H).
T1 construct: host or cells: THP1-Dual KO-IFNAR2 cells
T1 sequence (Q86WV6 whole entry R71H/G230A/H232R/R293Q): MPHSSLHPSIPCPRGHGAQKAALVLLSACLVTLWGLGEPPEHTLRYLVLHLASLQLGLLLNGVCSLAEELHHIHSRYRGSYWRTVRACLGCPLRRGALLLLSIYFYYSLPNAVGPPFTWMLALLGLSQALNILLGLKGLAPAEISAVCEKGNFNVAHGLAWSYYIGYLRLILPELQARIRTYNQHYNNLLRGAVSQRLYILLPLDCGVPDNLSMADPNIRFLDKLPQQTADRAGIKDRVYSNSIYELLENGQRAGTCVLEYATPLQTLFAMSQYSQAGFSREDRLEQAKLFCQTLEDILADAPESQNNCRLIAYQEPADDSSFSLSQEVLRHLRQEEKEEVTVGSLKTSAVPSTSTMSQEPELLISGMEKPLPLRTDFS
Put plainly: STING reporter assay (luciferase) in THP1-Dual KO-IFNAR2 cells stimulated with 2'3'cGAMP. Format: cell-based. To be noted: 2'3'cGAMP 15 μM, 24 h, luciferase reporter activity. The gist of the method: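 THP1-Dual KO-IFNAR2 cells (2×10E6 cells/mL) exposed to compounds at 0.0017-100 μM final, then stimulated with 2′3′cGAMP (15 μM final) delivered by Lipofectamine 2000 transfection. After 24 h at 37° C, secreted luciferase in supernatant read by QUANTI-Luc luminescence; EC50 calculated.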
A general note: In a reporter assay the amount or activity of a reporter protein is the signal.
`O=C(Nc1cnc(N2CC3(CN(CC(F)(F)F)C3)C2)c(F)c1)Nc1c[nH]c2ccc(Cl)cc12` [Compound 249, 1-(5-chloro-1H-indol-3-yl)-3-(5-fluoro-6-(6-(2,2,2-trifluoroethyl)-2,6-diazaspiro[3.3]heptan-2-yl)pyridin-3-yl)urea] displayed an EC50 of 200 to 1000 nM.

Compound `O=C(Nc1cnc(N2CC3(CN(CC(F)(F)F)C3)C2)c(Cl)c1)Nc1c[nH]c2ccccc12` [Compound 250, 1-(5-chloro-6-(6-(2,2,2-trifluoroethyl)-2,6-diazaspiro[3.3]heptan-2-yl)pyridin-3-yl)-3-(1H-indol-3-yl)urea] displayed an EC50 of 200 to 1000 nM. Consider `O=C(Nc1cnc(N2CCN(CC(F)(F)F)CC2)c(F)c1)Nc1c[nH]c2cc(F)c(F)cc12` [Compound 251, 1-(5,6-difluoro-1H-indol-3-yl)-3-(5-fluoro-6-(4-(2,2,2-trifluoroethyl)piperazin-1-yl)pyridin-3-yl)urea], for which the EC50 is 40 to 200 nM. Under `O=C(Nc1ccc(N2CCN(CCC(F)(F)F)CC2)nc1)Nc1c[nH]c2ccc(F)cc12` [Compound 252, 1-(5-fluoro-1H-indol-3-yl)-3-(6-(4-(3,3,3-trifluoropropyl)piperazin-1-yl)pyridin-3-yl)urea] stands 200 to 1000 nM.

Consider `O=C(Nc1ccc(N2CCN(CC(F)(F)F)CC2)nc1)Nc1c[nH]c2ccc(F)cc12` [Compound 253, 1-(5-fluoro-1H-indol-3-yl)-3-(6-(4-(2,2,2-trifluoroethyl)piperazin-1-yl)pyridin-3-yl)urea], for which the EC50 lay within 200 to 1000 nM. Regarding `O=C(Nc1ccnc(C2CCC(F)(F)CC2)c1)Nc1c[nH]c2ccccc12` [Compound 254, 1-(2-(4,4-difluorocyclohexyl)pyridin-4-yl)-3-(1H-indol-3-yl)urea], the EC50 was in the range of 200 to 1000 nM. Under `O=C(Nc1ccnc(C2CCC(F)(F)CC2)c1)Nc1c[nH]c2ccc(Cl)cc12` [Compound 255, 1-(5-chloro-1H-indol-3-yl)-3-(2-(4,4-difluorocyclohexyl)pyridin-4-yl)urea] stands 200 to 1000 nM; under `O=C(Nc1cncc(C2CCC(F)(F)CC2)c1)Nc1c[nH]c2ccc(Cl)cc12` [Compound 256, 1-(5-chloro-1H-indol-3-yl)-3-(5-(4,4-difluorocyclohexyl)pyridin-3-yl)urea], 200 to 1000 nM; under `N#Cc1cc(NC(=O)Nc2c[nH]c3ccc(Cl)cc23)cnc1C1CC(F)(F)C1` [Compound 257, 1-(5-chloro-1H-indol-3-yl)-3-(5-cyano-6-(3,3-difluorocyclobutyl)pyridin-3-yl)urea], 40 to 200 nM.

The compound `CN(C(=O)Nc1c[nH]c2ccc(Cl)cc12)c1cnc(N2CCC(F)(F)CC2)c(Cl)c1` [Compound 258, 3-(5-chloro-1H-indol-3-yl)-1-(5-chloro-6-(4,4-difluoropiperidin-1-yl)pyridin-3-yl)-1-methylurea] had an EC50 of 200 to 1000 nM. In the case of `O=C(Nc1cnc(N2CCN(CC3CC3)CC2)c(Cl)c1)Nc1c[nH]c2ccc(Cl)cc12` [Compound 260, 1-(5-chloro-1H-indol-3-yl)-3-(5-chloro-6-(4-(cyclopropylmethyl)piperazin-1-yl)pyridin-3-yl)urea], the EC50 was in the range of 40 to 200 nM. Next, `O=C(Nc1cnc(N2CCN(CC(F)F)CC2)c(Cl)c1)Nc1c[nH]c2ccc(Cl)cc12` [Compound 261, 1-(5-chloro-1H-indol-3-yl)-3-(5-chloro-6-(4-(2,2-difluoroethyl)piperazin-1-yl)pyridin-3-yl)urea]: 40 to 200 nM; `O=C(Nc1cnc(N2CC3(CN(CC(F)(F)F)C3)C2)c(Cl)c1)Nc1c[nH]c2ccc(Cl)cc12` [Compound 262, 1-(5-chloro-1H-indol-3-yl)-3-(5-chloro-6-(6-(2,2,2-trifluoroethyl)-2,6-diazaspiro[3.3]heptan-2-yl)pyridin-3-yl)urea]: 40 to 200 nM. For `CC1(C)OCC(c2ncc(NC(=O)Nc3c[nH]c4ccccc34)cc2Cl)CO1` [Compound 263, 1-(5-chloro-6-(2,2-dimethyl-1,3-dioxan-5-yl)pyridin-3-yl)-3-(1H-indol-3-yl)urea], the EC50 lay within 200 to 1000 nM. In turn, `CC1(C)OCC(c2ncc(NC(=O)Nc3c[nH]c4ccc(Cl)cc34)cc2Cl)CO1` [Compound 264, 1-(5-chloro-1H-indol-3-yl)-3-(5-chloro-6-(2,2-dimethyl-1,3-dioxan-5-yl)pyridin-3-yl)urea] showed an EC50 of 40 to 200 nM. Next, `COC(=O)c1cc(NC(=O)Nc2c[nH]c3ccccc23)cnc1C1CCC(F)(F)CC1` [Compound 265, methyl 5-(3-(1H-indol-3-yl)ureido)-2-(4,4-difluorocyclohexyl)nicotinate]: 40 to 200 nM; `O=C(Nc1cnc(N2CCN(CC(F)(F)F)CC2)c(Cl)c1)Nc1c[nH]c2ccc(F)cc12` [Compound 266, 1-(5-chloro-6-(4-(2,2,2-trifluoroethyl)piperazin-1-yl)pyridin-3-yl)-3-(5-fluoro-1H-indol-3-yl)urea]: 40 to 200 nM; `O=C(Nc1cnc(N2CCN(CCC(F)(F)F)CC2)c(F)c1)Nc1c[nH]c2ccc(F)cc12` [Compound 267, 1-(5-fluoro-1H-indol-3-yl)-3-(5-fluoro-6-(4-(3,3,3-trifluoropropyl)piperazin-1-yl)pyridin-3-yl)urea]: 40 to 200 nM. Compound `O=C(Nc1cnc(C2CCN(CC(F)(F)F)CC2)c(Cl)c1)Nc1c[nH]c2ccc(F)cc12` [Compound 268, 1-(5-chloro-6-(1-(2,2,2-trifluoroethyl)piperidin-4-yl)pyridin-3-yl)-3-(5-fluoro-1H-indol-3-yl)urea] displayed a half-maximal effective concentration (EC50) of 40 to 200 nM.

In turn, `O=C(Nc1cnc(N2CCN(CC(F)(F)F)CC2)c(Cl)c1)Nc1c[nH]c2cc(F)c(F)cc12` [Compound 269, 1-(5-chloro-6-(4-(2,2,2-trifluoroethyl)piperazin-1-yl)pyridin-3-yl)-3-(5,6-difluoro-1H-indol-3-yl)urea] gave an EC50 of 40 to 200 nM. Next, `O=C(Nc1cnc(C2CCN(CC(F)(F)F)CC2)c(F)c1)Nc1c[nH]c2ccc(F)cc12` [Compound 270, 1-(5-fluoro-1H-indol-3-yl)-3-(5-fluoro-6-(1-(2,2,2-trifluoroethyl)piperidin-4-yl)pyridin-3-yl)urea]: 40 to 200 nM. Next, `O=C(Nc1cnc(C2CCN(CC(F)(F)F)CC2)c(F)c1)Nc1c[nH]c2ccccc12` [Compound 271, 1-(5-fluoro-6-(1-(2,2,2-trifluoroethyl)piperidin-4-yl)pyridin-3-yl)-3-(1H-indol-3-yl)urea]: 200 to 1000 nM; `O=C(Nc1ccc(C2CC(F)(F)C2)c(F)c1)Nc1c[nH]c2ccc(F)cc12` [Compound 272, 1-(4-(3,3-difluorocyclobutyl)-3-fluorophenyl)-3-(5-fluoro-1H-indol-3-yl)urea]: 40 to 200 nM. Under `O=C(Nc1ccc(N2CCC(F)(F)CC2)nc1)Nc1c[nH]c2ccc(F)cc12` [Compound 273, 1-(6-(4,4-difluoropiperidin-1-yl)pyridin-3-yl)-3-(5-fluoro-1H-indol-3-yl)urea] stands 200 to 1000 nM; under `O=C(Nc1cnc(N2CCC(F)(F)CC2)c(F)c1)Nc1c[nH]c2ccc(F)cc12` [Compound 274, 1-(6-(4,4-difluoropiperidin-1-yl)-5-fluoropyridin-3-yl)-3-(5-fluoro-1H-indol-3-yl)urea], 40 to 200 nM. `O=C(Nc1cnc(N2CCC3(CC2)CC(F)(F)C3)c(Cl)c1)Nc1c[nH]c2ccc(Cl)cc12` [Compound 275, 1-(5-chloro-1H-indol-3-yl)-3-(5-chloro-6-(2,2-difluoro-7-azaspiro[3.5]nonan-7-yl)pyridin-3-yl)urea] had an EC50 of 40 to 200 nM.

The values are drawn from patent publication US20230127839A1, “COMPOUNDS AND COMPOSITIONS FOR TREATING CONDITIONS ASSOCIATED WITH STING ACTIVITY” (IFM Due, Inc., priority 2019, published 2023).
